Columns and labels:
[1] = Binding affinity to displace 0.4 nM of [3H]- gallopamil in rat myocardial membranes; format: cell membranes, Myocardium, Membrane
Rattus norvegicus = organism: Rattus norvegicus; test: Effective concentration for negative inotropic effect in rat myocardial ventricular strips; format: functional; details: Cardiac ventricle

Ki [1] | EC50 (Rattus norvegicus) | SMILES
37.6 nM | 105 nM | COc1ccc(C(C#N)(CCCN(C)CCc2ccc(N(C)C(=O)C([N+]#N)C(F)(F)F)cc2)C(C)C)cc1OC (centres undefined)
15.5 nM | 21.8 nM | COc1ccc(CCN(C)CCCC(C#N)(c2cc(OC)c(OC)c(OC)c2)C(C)C)cc1OC (centres undefined) [GALLOPAMIL]
